Like-named read-outs stand apart in the source and are kept apart here.

Data set [1] has as its target T1, phosphodiesterase type III obtained from ox heart (Bos taurus, UniProt A0A3Q1M1E8).
T1 sequence (A0A3Q1M1E8 1-1126): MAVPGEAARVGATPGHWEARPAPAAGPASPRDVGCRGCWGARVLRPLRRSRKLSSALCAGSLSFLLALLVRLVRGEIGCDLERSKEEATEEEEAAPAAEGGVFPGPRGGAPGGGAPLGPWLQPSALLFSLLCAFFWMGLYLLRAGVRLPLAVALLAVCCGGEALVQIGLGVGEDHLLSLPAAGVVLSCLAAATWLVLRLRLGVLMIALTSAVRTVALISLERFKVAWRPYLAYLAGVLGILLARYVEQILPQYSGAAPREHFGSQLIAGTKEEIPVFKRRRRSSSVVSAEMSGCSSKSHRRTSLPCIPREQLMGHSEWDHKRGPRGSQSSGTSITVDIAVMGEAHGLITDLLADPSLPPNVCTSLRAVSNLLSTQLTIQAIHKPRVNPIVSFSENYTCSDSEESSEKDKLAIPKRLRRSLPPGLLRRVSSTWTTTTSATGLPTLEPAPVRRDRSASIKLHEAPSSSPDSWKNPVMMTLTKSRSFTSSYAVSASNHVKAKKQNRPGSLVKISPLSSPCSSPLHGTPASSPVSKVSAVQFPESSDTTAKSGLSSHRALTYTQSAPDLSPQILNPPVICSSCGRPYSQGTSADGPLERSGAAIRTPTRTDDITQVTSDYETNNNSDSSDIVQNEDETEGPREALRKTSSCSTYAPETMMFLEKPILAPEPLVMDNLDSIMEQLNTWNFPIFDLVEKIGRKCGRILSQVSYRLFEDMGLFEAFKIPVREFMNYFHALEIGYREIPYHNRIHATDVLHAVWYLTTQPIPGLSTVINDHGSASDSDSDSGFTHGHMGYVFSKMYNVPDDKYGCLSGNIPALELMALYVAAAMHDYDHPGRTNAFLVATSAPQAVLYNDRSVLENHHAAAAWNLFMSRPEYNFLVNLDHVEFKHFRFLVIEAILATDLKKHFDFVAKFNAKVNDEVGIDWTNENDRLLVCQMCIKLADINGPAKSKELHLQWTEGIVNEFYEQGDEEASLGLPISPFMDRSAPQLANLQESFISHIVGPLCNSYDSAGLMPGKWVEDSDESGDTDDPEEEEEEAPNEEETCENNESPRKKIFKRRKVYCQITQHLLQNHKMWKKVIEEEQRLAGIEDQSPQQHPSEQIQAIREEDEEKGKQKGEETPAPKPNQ
The experiment in a line: Inhibition of phosphodiesterase type III, Method B (Appleman and Terasaki). The data set is classed as biochemical. To be noted: read-out: percentage inhibition of FDE-III activity; for inhibition at 100 µM: 10^-4 mol/l; for inhibition at 10 µM: 10^-5 mol/l; for inhibition at 1 µM: 10^-6 mol/l. As to the method: (§1) The inhibitory action of the compounds according to the invention on phosphodiesterase was tested on phosphodiesterase type III obtained from ox heart (Sigma Chemie, BRD) by the methods of W. Diederen and H. Weisenberger (Arzneim.-Forschumg 31, 177 (1981)) (Method A) and of M. A. Appleman and W. L. Terasaki (Advances in Cyclic Nucleotide Research, volume 5, Raven Press, New York (1975), page 153) (Method B).

Data set [2] deals with isolated, perfused guinea pig hearts. The experiment in a line: Haemodynamic effects on isolated, perfused Langendorff hearts (guinea pigs). To be noted: Cavia porcellus. The source says: (§2) The benzimidazoles according to the invention corresponding to the general formula I combine good oral availability with interesting pharmacological properties, especially cardiovascular effects, in particular positive inotropic and blood pressure lowering effects. They show an excellent cardiotonic activity in numerous pharmacological standard models, for example in vitro in the isolated, perfused Langendorff heart or in vivo on narcotised guinea pigs, where they produce a marked increase in contractility.
1. Investigations on isolated, perfused Langendorff Hearts (guinea pigs)
The arrangement of Langendorff was modified according to P. R. Beckett (J. Pharm. Pharmacol. 22, 818 (1970)) and R. M. Abel and R. L. Reis (Circ. Res. 27, 961 (1970)) to determine the haemodynamic effects of the compounds according to the invention on isolated, perfused guinea pig hearts. The spontaneously beating guinea pig hearts were catheterised in the left ventricle and perfused with solutions of the test substances in physiological saline solution/ethanol (9:1) at concentrations of 10^-4 to 10^-8 mol/1 at a constant perfusion pressure of 60 mm Hg.

The next data set relates to narcotised guinea pigs. Put plainly: Haemodynamic characterisation on narcotised guinea pigs (in vivo model). The arrangement: species or system guinea pig. To be noted: 10 μg/kg/min, infused through left jugular vein, under β-blockage (metoprolol 2 mg/kg i.m.).
From the text: as §2
2. Haemodynamic Characterisation on Narcotised Guinea Pigs (in vivo model)
The animals were narcotised with urethane (1.5 g/kg). The trachea was cannulated for volume controlled respiration. The two carotid arteries were then exposed operatively. A Tip catheter (3F) was introduced through the right carotid artery and moved forwards through the ascending aorta into the left ventricle while the pressure was continuously recorded. Successful passage through the aortic valves is recognised by the typical left ventricular pressure curve. A thermistor probe (3F, F. Edwards) is pushed forwards into the aortic arch through the left carotid for thermodilution. The thermistor probe also has a lumen for the recording of arterial blood pressure. A catheter is passed through the right jugular vein to be placed in front of the right auricle for application of the cold injectate (0.2 ml of 0.9% NaCl, 15° C.). The ECG is recorded in the first shunt. All substances are dissolved in physiological saline solution and infused through the left jugular vein (infusion volume 0 02 ml/min). The drug is applied after haemodynamic stabilisation and under β-blockage (metoprolol 2 mg/kg i.m.). All circulatory parameters are continuously registered on a direct recorder. The pulse frequency is calculated from the ECG, the contractility (dp/dt) is calculated from the […] and the volumetric cardiac output per unit time is calculated from the thermodilution curve.

Data set [3] concerns the target T1, phosphodiesterase type III obtained from ox heart. The experiment in a line: Inhibition of phosphodiesterase type III, Method A (Diederen and Weisenberger). Type of data set: biochemical. Particulars: read-out: percentage inhibition of FDE-III activity; for inhibition at 10 µM: 10^-5 mol/l; for inhibition at 1 µM: 10^-6 mol/l; for inhibition at 0.1 µM: 10^-7 mol/l. As to the method: as §1

In data set [4] the test system is phosphodiesterase type III. Particulars: heart muscle cells; cited from earlier work.
The conditions of data set [5]: cited from earlier work.
Where [6] appears, read: concentration range 10^-7 - 10^-5 mol/l, read-out: Maximum percentage changes compared with controls: Cardiac Frequency.
[7] abbreviates: concentration range 10^-7 - 10^-5 mol/l, read-out: Maximum percentage changes compared with controls: Contractility dp/dt.
[8] abbreviates: concentration range 10^-7 - 10^-5 mol/l, read-out: Maximum percentage changes compared with controls: Coronary Flow.
The mark [9] stands for this setting: due to the mechanisms of their action.

The term inhibition denotes the change of the read-out against control, counted positive when it falls. Regarding `CC1CC(=O)NN=C1c1ccc2[nH]c(CCCN)nc2c1` (centres unmarked) [Example 1], in data set [1], the inhibition at 100 µM amounted to 4%, the inhibition at 10 µM is 0% and the inhibition at 1 µM was 0%. Besides, the inhibition at 0.1 µM in data set [1] (10^-7 mol/l) came out at 0%. The Emax in data set [2] (concentration range 10^-8 - 10^-4 mol/l, read-out: Maximum percentage changes compared with controls: Cardiac Frequency) amounted to 11%. The Emax in data set [2] (concentration range 10^-8 - 10^-4 mol/l, read-out: Maximum percentage changes compared with controls: Contractility dp/dt) was 76%. The Emax in data set [2] (concentration range 10^-8 - 10^-4 mol/l, read-out: Maximum percentage changes compared with controls: Coronary Flow) turned out to be 25%. In the data set with narcotised guinea pigs, the “Maximum percentage changes compared with initial values: Blood Pressure sys.” value (shortened to “Maximum percentage changes … Blood Pressure sys.”) is -25%, the “Maximum percentage changes compared with initial values: Cardiac Frequency” value (from here on “Maximum percentage changes … Cardiac Frequency”) was “+20%” and the “Maximum percentage changes compared with initial values: Contractility dp/dt” value (shortened to “Maximum percentage changes … Contractility dp/dt”) is “+38%”. Moreover, the inhibition at 100 µM in data set [3] (10^-4 mol/l) was determined as 10%. Also, in data set [3], the inhibition at 10 µM was found to be 7%, the inhibition at 1 µM turned out to be 0% and the inhibition at 0.1 µM came out at 0%.

Take `COc1ccc(-c2nc3ccc(C4=NNC(=O)CC4C)cc3[nH]2)cc1` (centres unmarked) [Pimobendane, reference compound]: the “positive inotropic effect by inhibiting phosphodiesterases, in particular type III” value in data set [4] is on record as “positive inotropic effect”. Further, in data set [1], the inhibition at 100 µM was determined as 57%, the inhibition at 10 µM worked out at 19% and the inhibition at 1 µM amounted to 5%. For the same molecule, in data set [2] (setting [6]), the Emax stood at 8%. Also, in data set [2] (setting [7]), the Emax was found to be 99%. In data set [2] (setting [8]), the Emax was 76%. Also, in the data set on narcotised guinea pigs, the “Maximum percentage changes … Blood Pressure sys.” value is -51%, the “Maximum percentage changes … Cardiac Frequency” value is on record as “+3%” and the “Maximum percentage changes … Contractility dp/dt” value is “+10%”. Moreover, the undesirable side effects result in data set [5] (in vivo) was “undesirable side effects due to the mechanisms of their action, such as thrombocytopaenia or gastrointestinal disturbances”. In data set [3], the inhibition at 10 µM came out at 30%, the inhibition at 1 µM was 15% and the inhibition at 0.1 µM is 7%.

For the molecule `Cc1[nH]c(=O)c(C#N)cc1-c1ccncc1` [milrinone], the “positive inotropic effect by inhibiting phosphodiesterases, in particular type III” value in data set [4] was “positive inotropic effect”. The undesirable side effects entry in data set [5] (setting [9]) was “undesirable side effects due to the mechanisms of their action, such as thrombocytopaenia or gastrointestinal disturbances”.

For `CC1CC(=O)NN=C1c1ccc2[nH]c(CCCNC(=N)NCCCc3c[nH]cn3)nc2c1` (centres unmarked) [Example 6], the Emax in data set [2] (setting [6]) turned out to be 20%. The Emax in data set [2] (setting [7]) came to 161%. The Emax in data set [2] (setting [8]) stood at 52%. In addition, in the data set with narcotised guinea pigs, the “Maximum percentage changes … Blood Pressure sys.” value is recorded as -15%, the “Maximum percentage changes … Cardiac Frequency” value is recorded as “+17%” and the “Maximum percentage changes … Contractility dp/dt” value is listed as “+97%”.

For the molecule `Nc1cc(-c2ccncc2)c[nH]c1=O` [amrinone], in data set [4], the “positive inotropic effect by inhibiting phosphodiesterases, in particular type III” value was “positive inotropic effect”. Further, the undesirable side effects entry in data set [5] (setting [9]) is “undesirable side effects due to the mechanisms of their action, such as thrombocytopaenia or gastrointestinal disturbances”.

The values above are taken from patent US4957920A, “Benzimidazoles, and pharmaceutical preparations containing these compounds” (priority 1987, dated 1990).
